From patent US5254533A, “Elfamycin” (Rhone-Poulenc Rorer S.A., priority 1990, dated 1993)
Entries after “also recorded” stand apart in the source; their conditions may differ.

What was measured:
[1] = test system: Staphylococcus aureus 209P; assay: MIC, antibacterial activity (agar dilution); assay type: cell-based; details: Mueller Hinton Agar, about 18 h at about 37° C
[2] = test system: Staphylococcus aureus S tA 1; assay: MIC, antibacterial activity (agar dilution); assay type: cell-based; details: STA1, Mueller Hinton Agar, about 18 h at about 37° C
[3] = test system: Staphylococcus aureus S tA 2; assay: MIC, antibacterial activity (agar dilution); assay type: cell-based; details: STA2, Mueller Hinton Agar, about 18 h at about 37° C
[4] = test system: Staphylococcus epidermis; assay: MIC, antibacterial activity (agar dilution); assay type: cell-based; details: Mueller Hinton Agar, about 18 h at about 37° C
[5] = test system: Streptococcus bovis 3; assay: MIC, antibacterial activity (agar dilution); assay type: cell-based; details: Streptococcus equinus, Mueller Hinton Agar, about 18 h at about 37° C
[6] = test system: Streptococcus uberis 3; assay: MIC, antibacterial activity (agar dilution); assay type: cell-based; details: Mueller Hinton Agar, about 18 h at about 37° C
[7] = test system: Streptococcus uberis 8; assay: MIC, antibacterial activity (agar dilution); assay type: cell-based; details: Mueller Hinton Agar, about 18 h at about 37° C
[8] = test system: Escherichia coli INRA ECi; assay: MIC, antibacterial activity (agar dilution); assay type: cell-based; details: Mueller Hinton Agar, about 18 h at about 37° C
[9] = test system: Bacteroides thetaiotaomicron ATCC 29741; assay: MIC, antibacterial activity (agar dilution); assay type: cell-based; details: ATCC29741, anaerobic, Mueller Hinton Agar + 2% Fildes, about 48 h at about 37° C
Procedure: (§1) Description of the test method used
(§2) The strains used, identified in the following table, were thawed at the time of use and then diluted to obtain the following concentrations:
(§3) 10^7 bacteria/ml for the aerobic bacteria
(§4) 10^6 bacteria/ml for the anaerobic bacteria.
(§5) A stock suspension of the product of formula (II) was prepared at a concentration of 3000 mg/1 in water. It was then diluted with water to obtain concentrations of 300 mg/l, 100 mg/l, 50 mg/l and 25 mg/l.
(§6) The culture media were the following:
(§7) Mueller Hinton Agar (MHA) for the aerobic cultures
(§8) Mueller Hinton Agar (MHA)+2% Fildes (MHA) for the anaerobic cultures.
(§9) Each dilution of product was added to 20 mls of the culture medium maintained supercooled at 45° C., and the medium was then poured into Petri dishes. After gentle agitation, the dishes were dried open for about 1 hour at about 37° C.
(§10) Inoculation was carried out with a DENLEY multipoint inoculator, which deposited 10^-3 ml of each inoculum per spot.
(§11) Reading was performed after about 18 hours of incubation at about 37° C. for the aerobes and about 48 hours at about 37° C. for the anaerobes.
(§12) The minimal inhibitory concentration (MIC) was the lowest concentration for which no growth was observed.

[10] = test system: Clostridium septicum; assay: MIC, antibacterial activity (agar dilution); assay type: cell-based; details: anaerobic, Mueller Hinton Agar + 2% Fildes, about 48 h at about 37° C
Procedure: as §1, §2, §3, §4, §5, §6, §7, §8, §9, §10, §11, §12

[11] = test system: Escherichia coli DC2; assay: MIC, antibacterial activity (agar dilution); assay type: cell-based; details: Mueller Hinton Agar, about 18 h at about 37° C
Procedure: as §1, §2, §3, §4, §5, §6, §7, §8, §9, §10, §11, §12

[12] = test system: Escherichia coli DCO; assay: MIC, antibacterial activity (agar dilution); assay type: cell-based; details: Mueller Hinton Agar, about 18 h at about 37° C
Procedure: as §1, §2, §3, §4, §5, §6, §7, §8, §9, §10, §11, §12

[13] = test system: Klebsiella pneumoniae Caroli; assay: MIC, antibacterial activity (agar dilution); assay type: cell-based; details: Mueller Hinton Agar, about 18 h at about 37° C
[14] = test system: Pseudomonas aeruginosa IP A 237; assay: MIC, antibacterial activity (agar dilution); assay type: cell-based; details: IPA237, Mueller Hinton Agar, about 18 h at about 37° C
[15] = test system: Pasterella multocida IP; assay: MIC, antibacterial activity (agar dilution); assay type: cell-based; details: Mueller Hinton Agar, about 18 h at about 37° C
[16] = test system: Proteus vulgaris IP A272; assay: MIC, antibacterial activity (agar dilution); assay type: cell-based; details: IPA272, Mueller Hinton Agar, about 18 h at about 37° C
[17] = test system: Bacteroides fragilis 479R; assay: MIC, antibacterial activity (agar dilution); assay type: cell-based; details: anaerobic, Mueller Hinton Agar + 2% Fildes, about 48 h at about 37° C
[18] = Use as a growth factor in weaned piglets (Example 5); assay type: in vivo, weaned Large-White Belgian Landrace crossed piglets; details: for Initial weight: start of period 14-28 days; for Index of consumption: consumption/weight gain ratio
[19] = Use as a growth factor in piglets (Example 6); assay type: in vivo, weaned Large-White Belgian Landrace crossed piglets; details: for Final weight: control 24.7
Excerpt: 130 weaned Large-White Belgian Landrace crossed piglets were used. The experiment began 2 weeks after weaning of the animals, i.e. at a mean age of 42 days.
The animals received the experimental feed ad libitum in the form of granules 2.5 mm in diameter.
The animals were weighed at the beginning, middle and end of the experiment. The consumptions were noted every week.
Tables 7, 8 and 9 respectively show the percentage composition and the characteristics of the diets, the percentage composition of the CMV and the percentage composition of the premixes.
The results are shown in Table 10 for the period 0-14 days, Table 11 for the period 14-28 days and Table 12 for the period 0-28 days.

C/C=C\C=C\C1OC(O)(C(CC)C(=O)NC/C=C/C=C(\C)C(OC)C(C)C2CC(O)C(/C=C/C=C/C=C/C(=O)O)O2)C(O)C(O)C1(C)C (centres unmarked) [formula (II)]
MIC [1]: > 300 µg/mL | MIC [2]: > 300 µg/mL | MIC [3]: > 300 µg/mL | MIC [4]: > 300 µg/mL | MIC [5]: > 300 µg/mL | MIC [6]: 50 µg/mL | MIC [7]: 100 µg/mL | MIC [8]: > 300 µg/mL | MIC [9]: > 100 µg/mL | MIC [10]: > 100 µg/mL | MIC [11]: 100 µg/mL | MIC [12]: > 300 µg/mL | MIC [13]: > 300 µg/mL | MIC [14]: > 300 µg/mL | MIC [15]: > 300 µg/mL | MIC [16]: > 300 µg/mL | MIC [17]: > 100 µg/mL | Weight gain ([18]; 40 ppm in feed, 0-14 days, control 329): 360 g/day | Consumption ([18]; 40 ppm in feed, 0-14 days, control 614): 625 g/day | Weight gain ([18]; 40 ppm in feed, 0-28 days, control 445): 490 g/day | Consumption ([18]; 40 ppm in feed, 0-28 days, control 822): 847 g/day | Weight gain ([18]; 40 ppm in feed, 14-28 days, control 560): 620 g/day | Consumption ([18]; 40 ppm in feed, 14-28 days, control 1031): 1068 g/day | Intermediate Weight ([18]; 40 ppm in feed, Table 4, 0-14 days, control 15.3): 15.8 kg | Intermediate Weight ([18]; 40 ppm in feed, Table 5, 14-28 days, control 23.1): 24.5 kg | Intermediate Weight ([18]; 40 ppm in feed, Table 6, 0-28 days, control 23.1): 24.5 kg | Initial weight ([18]; 40 ppm in feed, control 15.3): 15.8 kg | improvement in growth relative to the basic diet ([18]; 40 ppm, overall period 0-28 days): 10% | performances of the animals (in words) ([18]; 60 ppm compared with the same product at 40 ppm, 0-28 days): somewhat behind those observed with the same product at 40 ppm | Weight gain ([18]; 60 ppm in feed, 0-14 days, control 329): 338 g/day | Consumption ([18]; 60 ppm in feed, 0-14 days, control 614): 599 g/day | Weight gain ([18]; 60 ppm in feed, 0-28 days, control 445): 463 g/day | Consumption ([18]; 60 ppm in feed, 0-28 days, control 822): 812 g/day | Weight gain ([18]; 60 ppm in feed, 14-28 days, control 560): 588 g/day | Consumption ([18]; 60 ppm in feed, 14-28 days, control 1031): 1026 g/day | Intermediate Weight ([18]; 60 ppm in feed, Table 4, 0-14 days, control 15.3): 15.3 kg | Intermediate Weight ([18]; 60 ppm in feed, Table 5, 14-28 days, control 23.1): 23.5 kg | Intermediate Weight ([18]; 60 ppm in feed, Table 6, 0-28 days, control 23.1): 23.5 kg | Initial weight ([18]; 60 ppm in feed, control 15.3): 15.3 kg | Index of consumption ([18]; 40 ppm in feed, 0-14 days, control 1.88): 1.77 | Index of consumption ([18]; 40 ppm in feed, 0-28 days, control 1.85): 1.73 | Index of consumption ([18]; 40 ppm in feed, 14-28 days, control 1.86): 1.73 | Index of consumption ([18]; 60 ppm in feed, 0-14 days, control 1.88): 1.78 | Index of consumption ([18]; 60 ppm in feed, 0-28 days, control 1.85): 1.75 | Index of consumption ([18]; 60 ppm in feed, 14-28 days, control 1.86): 1.74 | effect on index of consumption (in words) ([18]; overall period 0-28 days): improved quite significantly | effect on consumption (in words) ([18]; overall period 0-28 days, listed as product II): did not bring about a significant improvement in consumption; also recorded: comparable to tylosin | Index of consumption ([19]; 10 ppm in feed, 0-14 days, control 1.76): 1.70 | Weight gain ([19]; 10 ppm in feed, 0-14 days, control 368): 418 g/day | Consumption ([19]; 10 ppm in feed, 0-14 days, control 645): 694 g/day | Index of consumption ([19]; 10 ppm in feed, 0-28 days, control 1.80): 1.72 | Weight gain ([19]; 10 ppm in feed, 0-28 days, control 474): 533 g/day | Consumption ([19]; 10 ppm in feed, 0-28 days, control 852): 914 g/day | Index of consumption ([19]; 10 ppm in feed, 14-28 days, control 1.84): 1.75 | Weight gain ([19]; 10 ppm in feed, 14-28 days, control 579): 648 g/day | Consumption ([19]; 10 ppm in feed, 14-28 days, control 1059): 1133 g/day | Final weight ([19]; 10 ppm in feed, Table 11, 14-28 days): 26.4 kg | Final weight ([19]; 10 ppm in feed, Table 12, 0-28 days): 26.4 kg | Index of consumption ([19]; 20 ppm in feed, 0-14 days, control 1.76): 1.61 | Weight gain ([19]; 20 ppm in feed, 0-14 days, control 368): 430 g/day | Consumption ([19]; 20 ppm in feed, 0-14 days, control 645): 689 g/day | Index of consumption ([19]; 20 ppm in feed, 0-28 days, control 1.80): 1.69 | Weight gain ([19]; 20 ppm in feed, 0-28 days, control 474): 547 g/day | Consumption ([19]; 20 ppm in feed, 0-28 days, control 852): 927 g/day | Index of consumption ([19]; 20 ppm in feed, 14-28 days, control 1.84): 1.75 | Weight gain ([19]; 20 ppm in feed, 14-28 days, control 579): 664 g/day | Consumption ([19]; 20 ppm in feed, 14-28 days, control 1059): 1164 g/day | Final weight ([19]; 20 ppm in feed, Table 11, 14-28 days): 26.8 kg | Final weight ([19]; 20 ppm in feed, Table 12, 0-28 days): 26.8 kg | Index of consumption ([19]; 40 ppm in feed, 0-14 days, control 1.76): 1.70 | Weight gain ([19]; 40 ppm in feed, 0-14 days, control 368): 416 g/day | Consumption ([19]; 40 ppm in feed, 0-14 days, control 645): 701 g/day | Index of consumption ([19]; 40 ppm in feed, 0-28 days, control 1.80): 1.70 | Weight gain ([19]; 40 ppm in feed, 0-28 days, control 474): 532 g/day | Consumption ([19]; 40 ppm in feed, 0-28 days, control 852): 900 g/day | Index of consumption ([19]; 40 ppm in feed, 14-28 days, control 1.84): 1.70 | Weight gain ([19]; 40 ppm in feed, 14-28 days, control 579): 648 g/day | Consumption ([19]; 40 ppm in feed, 14-28 days, control 1059): 1099 g/day | Final weight ([19]; 40 ppm in feed, Table 11, 14-28 days): 26.4 kg | Final weight ([19]; 40 ppm in feed, Table 12, 0-28 days): 26.4 kg
